Measurements: US9504676B2, “Molecules inhibiting a metabolic pathway involving the Syk protein tyrosine kinase and method for identifying said molecules” (CENTRE NATIONAL DE LA RECHERCHE SCIENTIFIQUE, priority 2008, dated 2016)

System: Spleen B lymphocyte cells
Test: In vitro B lymphocyte proliferation induced by anti-IgM
Format: cell-based, BALB/c mice
Description: • 1) Chemical products and antibodies. A chemical bank of 3000 molecules (a varied subset) was acquired from ChemBridge, Inc. (San Diego, Calif.). Stocks of solutions of small molecules were prepared at a rate of 10 mM in DMSO (dimethylsulphoxide), except for C-13 (methyl 2-{5-[(3-benzyl-4-oxo-2-thioxo-1,3-thiazolidin-5-ylidene)methyl]-2-furyl}benzoate, ChemBridge ID No. 6197026) prepared in DMF (dimethylformamide). Unless specified otherwise, all the reagents were supplied by Sigma. Dinitrophenyl (DNP) hapten was acquired from Calbiochem. Sepharose GammaBind G and all the secondary antibodies were supplied by GE Health Amersham Biosciences. […] The binding of G4G11 with Syk was assessed by adding the 9E10 monoclonal antibody conjugated with HRP detecting the amino acid sequence EQKLISEEDLN of human c-myc protein located at the C-terminal end of the scFv fragment. To generate Syk mutants, targeted mutagenesis was used on GST:Syk 6-242 protein and the binding of G4G11 with the mutants was assessed in the presence of 5 μM of C-13. • 3) Cells, culture conditions and functional tests. […] The level of β-hexosaminidase released was measured 10 min later and the TNF-α titration was performed by means of a cytotoxicity test on L929 cells as described previously^10, 3 hours after stimulation. […]

COC(=O)c1ccccc1-c1ccc(/C=C2/SC(=S)N(Cc3ccccc3)C2=O)o1 [Molecule C-13, methyl 2-{5-[(3-benzyl-4-oxo-2-thioxo-1,3-thiazolidin-5-ylidene)methyl]-2-furyl}benzoate]
BCR-dependent B lymphocyte in vitro proliferation: inhibited in a dose-dependent fashion
